According to US20180170941A1 (priority 2016, published 2018):

What follows are molecules tested against T1, α5β3γ2 GABAA receptors (Ltk cell membranes) (Homo sapiens, UniProt P18507+P31644) (assay: Binding activity of test compounds on GABAAR: inhibition of [3H]Ro15-1788 binding). Conditions: not given.
T1 construct: membranes
Summary of the method: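 Membranes from dexamethasone-induced Ltk cells (α5 line: 0.5 μM, 1 day); binding with [3H]Ro15-1788 for 1 h at 4 °C in 50 mM KH2PO4, 1 mM EDTA, 0.2 M KCl, pH 7.4, 0.2 mg/ml α5 protein. Nonspecific binding defined by 10 μM diazepam; filtration, scintillation counting, triplicates.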

T1 sequence (P31644 32-462): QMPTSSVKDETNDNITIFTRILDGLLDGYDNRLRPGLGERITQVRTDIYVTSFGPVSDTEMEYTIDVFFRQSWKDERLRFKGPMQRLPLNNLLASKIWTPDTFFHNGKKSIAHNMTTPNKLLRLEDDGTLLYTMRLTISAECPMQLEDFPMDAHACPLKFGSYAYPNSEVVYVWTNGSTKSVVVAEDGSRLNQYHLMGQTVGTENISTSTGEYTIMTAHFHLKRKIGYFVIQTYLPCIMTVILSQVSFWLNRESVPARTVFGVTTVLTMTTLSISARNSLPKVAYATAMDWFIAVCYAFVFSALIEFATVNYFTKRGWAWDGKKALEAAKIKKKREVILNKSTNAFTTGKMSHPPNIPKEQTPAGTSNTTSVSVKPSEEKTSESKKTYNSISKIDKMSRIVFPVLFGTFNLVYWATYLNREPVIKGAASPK
T1 sequence (P28472 26-473 partner): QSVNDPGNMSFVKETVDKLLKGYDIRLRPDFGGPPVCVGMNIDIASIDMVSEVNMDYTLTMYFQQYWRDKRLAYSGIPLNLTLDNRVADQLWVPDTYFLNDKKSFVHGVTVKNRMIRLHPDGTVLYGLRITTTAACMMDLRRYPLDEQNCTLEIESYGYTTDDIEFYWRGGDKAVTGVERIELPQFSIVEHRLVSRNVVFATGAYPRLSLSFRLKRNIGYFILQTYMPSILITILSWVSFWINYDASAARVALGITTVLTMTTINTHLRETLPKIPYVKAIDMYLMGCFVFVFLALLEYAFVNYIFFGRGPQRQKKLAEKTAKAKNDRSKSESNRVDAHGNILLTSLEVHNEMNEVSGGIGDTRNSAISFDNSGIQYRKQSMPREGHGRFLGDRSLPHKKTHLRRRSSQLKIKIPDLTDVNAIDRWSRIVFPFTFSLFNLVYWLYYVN
T1 sequence (P18507 40-475): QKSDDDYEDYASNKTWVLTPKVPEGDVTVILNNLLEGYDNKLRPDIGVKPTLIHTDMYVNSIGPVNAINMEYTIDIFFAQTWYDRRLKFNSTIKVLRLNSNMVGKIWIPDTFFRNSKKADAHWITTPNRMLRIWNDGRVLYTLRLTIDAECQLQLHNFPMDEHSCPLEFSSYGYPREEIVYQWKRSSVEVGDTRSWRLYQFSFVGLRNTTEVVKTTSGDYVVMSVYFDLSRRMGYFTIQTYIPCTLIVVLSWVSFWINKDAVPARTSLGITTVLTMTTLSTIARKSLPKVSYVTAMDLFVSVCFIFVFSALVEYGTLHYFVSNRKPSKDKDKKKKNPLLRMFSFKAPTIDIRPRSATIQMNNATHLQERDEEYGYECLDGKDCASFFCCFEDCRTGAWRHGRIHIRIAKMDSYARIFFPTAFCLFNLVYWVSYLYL

| Structure (SMILES) | Ki |
| --- | --- |
| CC#Cc1nc(C)n2c1Cn1c(COC(C)C)nnc1-c1cc(Cl)ccc1-2 [Compound 306] | > 1000 nM |
| CC(C)OCc1nnc2n1Cc1c(-c3cnco3)ncn1-c1ccc(Cl)cc1-2 [Compound 315] | > 1000 nM |

Same assay, conditions: GABA α5 Binding Ki Values, inhibition of [3H]Ro15-1788 binding; reported as ranges

| Structure (SMILES) | Ki |
| --- | --- |
| C#Cc1ncn2c1Cn1c(COCC)nnc1-c1cc(Cl)ccc1-2 [Compound 261] | < 100 nM |
| COc1ccc2c(c1)-n1nnc(/C=C/c3ccccc3)c1Cc1c(C#N)ncn1-2 [Compound 262] | > 1000 nM |
| COCc1nnc2n1Cc1c(C3=N[C@H](c4ccccc4)CO3)ncn1-c1ccc(Cl)cc1-2 [Compound 263] | < 100 nM |
| COCc1nnc2n1Cc1c(C3=N[C@@H](c4ccccc4)CO3)ncn1-c1ccc(Cl)cc1-2 [Compound 264] | < 100 nM |
| COCc1nnc2n1Cc1c(C3=N[C@@H](Cc4ccccc4)CO3)ncn1-c1ccc(Cl)cc1-2 [Compound 265] | 100 to 1000 nM |
| COCc1nnc2n1Cc1c(C3=N[C@@H](CC4CCCCC4)CO3)ncn1-c1ccc(Cl)cc1-2 [Compound 266] | 100 to 1000 nM |
| COCc1nnc2n1Cc1c(C3=N[C@H](CC(C)C)CO3)ncn1-c1ccc(Cl)cc1-2 [Compound 267] | 100 to 1000 nM |
| CC(C)OCc1nnc2n1Cc1c(C3=N[C@H](c4ccccc4)CO3)ncn1-c1ccc(Cl)cc1-2 [Compound 268] | < 100 nM |
| CC(C)OCc1nnc2n1Cc1c(C3=N[C@@H](c4ccccc4)CO3)ncn1-c1ccc(Cl)cc1-2 [Compound 270] | < 100 nM |
| CCOCc1nnc2n1Cc1c(C3=N[C@H](c4ccccc4)CO3)ncn1-c1ccc(Cl)cc1-2 [Compound 271] | < 100 nM |
| COc1ccc2c(c1)-n1nnc(-c3ccccc3)c1Cc1c(-c3nc(C(C)C)no3)ncn1-2 [Compound 272] | > 1000 nM |
| COc1ccc2c(c1)-n1nnc(-c3ccccc3)c1Cc1c(-c3nc(C)no3)ncn1-2 [Compound 273] | 100 to 1000 nM |
| COCc1nnc2n1Cc1c(COc3ccccn3)ncn1-c1ccc(Cl)cc1-2 [Compound 274] | 100 to 1000 nM |
| CCOCc1nnc2n1Cc1c(C3=N[C@@H](c4ccccc4)CO3)ncn1-c1ccc(Cl)cc1-2 [Compound 275] | < 100 nM |
| COc1ccc2c(c1)-n1nnc(C)c1Cc1c(-c3nc(C(C)C)no3)ncn1-2 [Compound 277] | < 100 nM |
| CCOCc1nnc2n1Cc1c(-c3cc(C)no3)ncn1-c1ccc(Cl)cc1-2 [Compound 278] | < 100 nM |
| CCOC(=O)c1ncn2c1Cc1c(-c3ccccc3Cl)nnn1-c1cc(OC)ccc1-2 [Compound 279] | > 1000 nM |
| Cc1cc(-c2ncn3c2Cn2c(COC(C)C)nnc2-c2cc(Cl)ccc2-3)on1 [Compound 281] | 100 to 1000 nM |
| COCc1nnc2n1Cc1c(C3=N[C@H](C)CO3)ncn1-c1ccc(Cl)cc1-2 [Compound 282] | < 100 nM |
| COCc1nnc2n1Cc1c(C3=N[C@@H](C)CO3)ncn1-c1ccc(Cl)cc1-2 [Compound 283] | 100 to 1000 nM |
| C#Cc1ccc2c(c1)-c1nnc(COC)n1Cc1c(C3=N[C@H](C(C)C)CO3)ncn1-2 [Compound 284] | 100 to 1000 nM |
| COCc1nnc2n1Cc1c(C#Cc3ccccc3)ncn1-c1ccc(Cl)cc1-2 [Compound 285] | < 100 nM |
| CC(C)OCc1nnc2n1Cc1c(C3=N[C@H](C)CO3)ncn1-c1ccc(Cl)cc1-2 [Compound 286] | 100 to 1000 nM |
| CC(C)OCc1nnc2n1Cc1c(C3=N[C@@H](C)CO3)ncn1-c1ccc(Cl)cc1-2 [Compound 287] | 100 to 1000 nM |
| C#Cc1ncn2c1Cn1c(COC(C)C)nnc1-c1cc(Cl)ccc1-2 [Compound 288] | < 100 nM |

| Structure (SMILES) | Ki |
| --- | --- |
| COc1ccc2c(c1)-n1nncc1Cc1c(C3=N[C@@H](c4ccccc4)CO3)ncn1-2 [Compound 289] | < 100 nM |
| COc1ccc2c(c1)-n1nncc1Cc1c(C3=N[C@H](C)CO3)ncn1-2 [Compound 291] | < 100 nM |
| COc1ccc2c(c1)-n1nncc1Cc1c(C3=N[C@@H](C)CO3)ncn1-2 [Compound 292] | 100 to 1000 nM |
| COCc1nnc2n1Cc1c(C#Cc3ccccc3C)ncn1-c1ccc(Cl)cc1-2 [Compound 293] | < 100 nM |
| COCc1nnc2n1Cc1c(C3=NC[C@@H](C)O3)ncn1-c1ccc(Cl)cc1-2 [Compound 294] | < 100 nM |
| COCc1nnc2n1Cc1c(C3=NC[C@H](C)O3)ncn1-c1ccc(Cl)cc1-2 [Compound 295] | < 100 nM |
| COCc1nnc2n1Cc1c(-c3ncc(C)o3)ncn1-c1ccc(Cl)cc1-2 [Compound 296] | < 100 nM |
| COCc1nnc2n1Cc1c(C3=NC(C)(C)CO3)ncn1-c1ccc(Cl)cc1-2 [Compound 297] | 100 to 1000 nM |
| COCc1nnn2c1Cc1c(C3=N[C@@H](C)CO3)ncn1-c1ccc(OC)cc1-2 [Compound 298] | 100 to 1000 nM |
| COCc1nnn2c1Cc1c(C3=N[C@@H](Cc4ccccc4)CO3)ncn1-c1ccc(Cl)cc1-2 [Compound 299] | 100 to 1000 nM |
| COCc1nnn2c1Cc1c(C3=N[C@@H](C)CO3)ncn1-c1ccc(Cl)cc1-2 [Compound 300] | 100 to 1000 nM |
| C#Cc1ccc2c(c1)-c1nnc(COC)n1Cc1c(-c3nc(-c4ccccc4)co3)ncn1-2 [Compound 302] | < 100 nM |
| Cc1cc(-c2ncn3c2Cn2c(COCC(F)(F)F)nnc2-c2cc(Cl)ccc2-3)on1 [Compound 303] | 100 to 1000 nM |
| FC(F)(F)COCc1nnc2n1Cc1c(C3=N[C@@H](c4ccccc4)CO3)ncn1-c1ccc(Cl)cc1-2 [Compound 304] | < 100 nM |
| C#Cc1nc(C)n2c1Cn1c(COC(C)C)nnc1-c1cc(Cl)ccc1-2 [Compound 305] | 100 to 1000 nM |
| CCOCc1nnc2n1Cc1c(C#Cc3ccccc3F)ncn1-c1ccc(Cl)cc1-2 [Compound 307] | < 100 nM |
| CCOC(=O)c1ncn2c1Cn1c(COCC(F)(F)F)nnc1-c1cc(Cl)ccc1-2 [Compound 308] | < 100 nM |
| FC(F)(F)COCc1nnc2n1Cc1c(C3=NCCO3)ncn1-c1ccc(Cl)cc1-2 [Compound 309] | 100 to 1000 nM |
| Cc1ccccc1C#Cc1ncn2c1Cn1c(COC(C)C)nnc1-c1cc(Cl)ccc1-2 [Compound 310] | < 100 nM |
| CCOCc1nnc2n1Cc1c(C#Cc3ccccc3C)ncn1-c1ccc(Cl)cc1-2 [Compound 311] | < 100 nM |
| Cc1coc(-c2ncn3c2Cn2c(COCC(F)(F)F)nnc2-c2cc(Cl)ccc2-3)n1 [Compound 312] | 100 to 1000 nM |
| FC(F)(F)COCc1nnc2n1Cc1c(-c3nc(-c4ccccc4)co3)ncn1-c1ccc(Cl)cc1-2 [Compound 313] | < 100 nM |
| COCc1nnc2n1Cc1c(-c3cnco3)ncn1-c1ccc(Cl)cc1-2 [Compound 314] | 100 to 1000 nM |
| CC(C)OCc1nnc2n1Cc1c(C3=NCCO3)ncn1-c1ccc(Cl)cc1-2 [Compound 316] | 100 to 1000 nM |
| CCOCc1nnc2n1Cc1c(C3=NCCO3)ncn1-c1ccc(Cl)cc1-2 [Compound 317] | < 100 nM |

| Structure (SMILES) | Ki |
| --- | --- |
| CCOC(=O)c1ncn2c1Cc1c(C#Cc3ccccc3)nnn1-c1cc(OC)ccc1-2 [Compound 318] | 100 to 1000 nM |
| COCc1nnc2n1Cc1c(C3=N[C@@H](c4ccccc4F)CO3)ncn1-c1ccc(Cl)cc1-2 [Compound 319] | < 100 nM |
| COCc1nnc2n1Cc1c(C3=N[C@@H](c4ccc(F)cc4)CO3)ncn1-c1ccc(Cl)cc1-2 [Compound 320] | < 100 nM |
| CC(C)OCc1nnc2n1Cc1c(C3=N[C@@H](c4ccccc4F)CO3)ncn1-c1ccc(Cl)cc1-2 [Compound 321] | 100 to 1000 nM |
| CCOCc1nnc2n1Cc1c(C3=N[C@@H](c4ccccc4F)CO3)ncn1-c1ccc(Cl)cc1-2 [Compound 322] | < 100 nM |
| COCc1nnc2n1Cc1c(-c3nc(-c4ccccc4F)co3)ncn1-c1ccc(Cl)cc1-2 [Compound 323] | < 100 nM |
| COCc1nnc2n1Cc1c(-c3nc(-c4ccc(F)cc4)co3)ncn1-c1ccc(Cl)cc1-2 [Compound 324] | < 100 nM |
| CCOCc1nnc2n1Cc1c(C3=N[C@@H](c4ccc(F)cc4)CO3)ncn1-c1ccc(Cl)cc1-2 [Compound 325] | < 100 nM |
| CC(C)OCc1nnc2n1Cc1c(C3=N[C@@H](c4ccc(F)cc4)CO3)ncn1-c1ccc(Cl)cc1-2 [Compound 326] | < 100 nM |
| CC(C)OCc1nnc2n1Cc1c(-c3ncco3)ncn1-c1ccc(Cl)cc1-2 [Compound 327] | < 100 nM |
| C#Cc1ncn2c1Cn1c(COC)nnc1-c1cc(OC)ccc1-2 [Compound 328, 5-ethynyl-15-methoxy-9-(methoxymethyl)-2,4,8,10,11-pentaazatetracyclo[11.4.0.0^2,^6.0^8,^12]heptadeca-1(17),3,5,9,11,13,15-heptaene] | < 100 nM |
| COCc1nnc2n1Cc1c(C3=N[C@@H](c4ccccc4C)CO3)ncn1-c1ccc(Cl)cc1-2 [Compound 330] | < 100 nM |
| COCc1nnc2n1Cc1c(C3=N[C@@H](c4ccccc4OC)CO3)ncn1-c1ccc(Cl)cc1-2 [Compound 331] | < 100 nM |
| COCc1nnc2n1Cc1c(C3=N[C@@H](c4ccc(OC)cc4)CO3)ncn1-c1ccc(Cl)cc1-2 [Compound 332] | < 100 nM |
| COCc1nnc2n1Cc1c(C3=N[C@@H](c4cccc(OC)c4)CO3)ncn1-c1ccc(Cl)cc1-2 [Compound 333] | < 100 nM |
| COCc1nnc2n1Cc1c(C3=N[C@@H](c4ccc(Cl)cc4)CO3)ncn1-c1ccc(Cl)cc1-2 [Compound 334] | < 100 nM |
| COCc1nnc2n1Cc1c(C3=N[C@@H](c4cc(F)ccc4F)CO3)ncn1-c1ccc(Cl)cc1-2 [Compound 335] | < 100 nM |
| COCc1nnc2n1Cc1c(C3=N[C@@H](c4cccc(C(F)(F)F)c4)CO3)ncn1-c1ccc(Cl)cc1-2 [Compound 336] | 100 to 1000 nM |
| COCc1nnc2n1Cc1c(C3=N[C@@H](c4ccc(C(F)(F)F)cc4)CO3)ncn1-c1ccc(Cl)cc1-2 [Compound 337] | < 100 nM |
| COCc1nnc2n1Cc1c(C3=N[C@@H](c4cccc5ccccc45)CO3)ncn1-c1ccc(Cl)cc1-2 [Compound 338] | < 100 nM |
| CC#Cc1ncn2c1Cn1c(COC)nnc1-c1cc(Cl)ccc1-2 [Compound 339] | < 100 nM |
| COCc1nnc2n1Cc1c(C3=N[C@H](c4ccccc4)CO3)ncn1-c1ccc(OC)cc1-2 [Compound 340] | < 100 nM |
| CCOCc1nnc2n1Cc1c(-c3ncco3)ncn1-c1ccc(Cl)cc1-2 [Compound 341] | < 100 nM |
